The values that follow come from patent publication US7807422B2, “Production of flavonoids by recombinant microorganisms” (The Research Foundation of State University of New York, priority 2004, dated 2010).

One assay deals with E. coli BL21 Star. Kind of assay: Effect of phenylpropanoid acids on E. coli growth (growth curves). As to conditions: 2 mM p-coumaric acid, M9 rich medium. The format is cell-based. On the procedure: Growth Curves. In order to investigate the effect of Phenylpropanoid acids on E. coli growth, E. coli BL21 Star was inoculated in 3 ml M9 liquid minimum medium and was left to grow at 37° C. overnight (preinoculum). The following day, 1 ml from the preinoculum was transferred to either 50 ml M9 minimal or Luria-Bertani (LB) rich liquid medium and p-coumaric acid, caffeic acid or cinnamic acid were added in the culture at different final concentrations (0 mM, 0.2 mM, 0.5 mM, 1 mM and 2 mM). Cell growth was monitored by measuring the absorbance at 600 nm (A600).
Phenylpropanoid acids reduce E. coli growth. We tested the effect of both p-coumaric acid and cinnamic acid on E. coli growth by incubating BL21 Star in M9 minimum medium and LB rich medium in the presence of different concentration of these compounds (0 mM, 0.05 mM, 0.1 mM, 0.15 mM, 0.2 mM, 1 mM, and 2 mM). […] For example, in the case of p-coumaric acid in […], the growth rate dropped from 0.28 h^−1 (control, 0 mM) to 0.18 h^−1 (2 mM). Similarly, for cinnamic acid the growth rate dropped from 0.27 h^−1 (control, 0 mM) to 0.17 h^−1 (2 mM) in M9 minimal medium.

Assay [1] relates to Recombinant DFR A. andraeanum. Kind of assay: In vitro DFR/FNR enzymatic reaction, TLC analysis. The conditions noted are these: compound as substrate; pH 6.5, 30° C. The format is biochemical, Anthurium andraeanum. How it is done: (§1) Vector pTrcHis2-TOPO, either empty (control) or harboring the various cDNA sequences, was transformed into E. coli strain TOP10F′ (Invitrogen). Individual colonies were grown overnight in 3-mL Luria-Broth (LB) cultures with 100 μg/mL Ampicillin. The seed culture was used the following day to start a 50-mL main culture with an initial absorbance at 600 nm (A600) of 0.05. The main culture was left to grow at 37° C. until A600 reached 0.5-0.8. At that point, the inducer IPTG (isopropyl β-thiogalactoside) at a final concentration of 2 mM was added and the culture was left to grow for 4 hours at 30° C. Cells were harvested by centrifugation, resuspended in 5 mL of buffer (0.1 M K2HPO4/KH2PO4, pH 6.5), and lysed by either sonication or glass beads.
(§2) In vitro DFR and FNR enzymatic reactions were performed using 186 Bq of radiolabeled substrate and incubation was performed at 30° C. for 30 min−1 hour for DFR tests, and 30 min−2.5 hours for FNR tests. Ethyl acetate extraction was performed (twice) at the end of the incubation period, with 100 μL ethyl acetate. The organic phase was analyzed on a precoated TLC cellulose plate (Merck, Germany). The products, leucoanthocyanins and flavan-4-ols were separated from the respective substrates, dihydroflavonols and flavanones by chromatography in chloroform:acetic acid:water (10:9:1) system. The detection and quantification of radioactivity was performed using Fuji BAS1000 Bio-Imaging Analyzer. Protein content was determined using Lowry procedure with crystalline BSA as a standard. In vitro reaction products were identified by a previously published Rf values from in vitro reactions using heterologously expressed DFR proteins from Malus domestica (Punyasiri, et al., 2004, Arch. Biochem. Biophys., 431:22-30). Using TLC chromatography with chloroform:acetic acid:water (10:9:1), the Rf(×100) values for various flavonoids are DHK: 68; DHQ: 35; DHM: 11; NAR: 93; ERI: 61; LPg: 18; LCy: 8; LDp: 14; Apf: 45; Ltf: 18.
(§3) The in vitro reactions were performed using the optimal conditions (pH 6.5, 30° C.). […] No products were formed when using crude extract from E. coli harboring empty vector. DHQ and DHM were accepted as substrates by all seven recombinant enzymes, however, only the recombinant DFR enzymes derived from A. andraeanum, A. thaliana, I. nil, R. hybrida, and F. ananassa were able to catalyze the formation of LPg (Table 18). […] In addition, no LPg could be detected in assays using DFR from I. purpurea and L. hybrid even when the reaction period was extended and the amount of protein was increased up to 100 μg. In all cases, substrate specificity appeared to be independent of temperature or pH changes.

Assay [2] concerns E. coli JM109 carrying plasmid pK184. The experiment in a line: Effect of naringenin on E. coli growth. The class given is cell-based. How it is done: E. coli shake-flask experiments. The identification of compounds produced from recombinant E. coli strain JM109 carrying plasmid pDGFA184 was done in a similar way to what has already been described in the literature Hwang et al., 2003, Appl. Environ Microbiol., 69:2699-2706). More specifically, 3 ml of Luria-Broth rich medium containing 50 ug/ml kanamycin was inoculated with the recombinant strain and was incubated at 37° C. with vigorous shaking. The next day, 200 ml of LB containing 50 μg/ml kanamycin was inoculated with 1 ml of overnight culture and the culture was incubated at 37° C. with vigorous shaking at 300 rpm to an OD600 of approximately 0.6. Next, the inducer IPTG was added to the culture to a final concentration of 1 mM. In order to avoid the formation of inclusion bodies, after the addition of the inducer the culture was incubated at room temperature with vigorous shaking overnight. Next day the cells were harvested by centrifugation and washed twice with M9 minimal medium. The pellets were then resuspended in 200 ml M9 minimal medium containing 50 μg/ml kanamycin, 1 mM IPTG and various concentrations of naringenin. In order to measure growth curves, the cultures were left to grow at room temperature with vigorous shaking until late stationary phase was reached. For flavonoid extraction experiments, the cultures were left to grow at room temperature for 65 h, again with horizontal vigorous shaking.
We tested the effect of naringenin on E. coli growth by incubating cultures of JM109 carrying plasmid pK184 in M9 minimal medium (50 μg/ml kanamycin) in the presence of different concentrations of naringenin (0.1 mM, 0.3 mM, 0.5 mM and 1 mM).

In assay [3] the test system is Recombinant DFR I. purpurea. Kind of assay: In vitro DFR/FNR enzymatic reaction, TLC analysis. The class given is biochemical, Ipomoea purpurea. As to conditions: compound as substrate; pH 6.5, 30° C. How it is done:
as §1, §2, §3

The subject of assay [4] is Recombinant DFR L. hybrid. The experiment in a line: In vitro DFR/FNR enzymatic reaction, TLC analysis. The conditions noted are these: compound as substrate; pH 6.5, 30° C. The format is biochemical, Lilium hybrid. How it is done:
as §1, §2, §3

The test system of assay [5] is Recombinant DFR R. hybrida. The experiment in a line: In vitro DFR/FNR enzymatic reaction, TLC analysis. The format is biochemical, Rosa hybrida. The conditions noted are these: compound as substrate; pH 6.5, 30° C. On the procedure: as §1, §2, §3
In assay [6] the test system is Recombinant DFR F. ananassa. The experiment in a line: In vitro DFR/FNR enzymatic reaction, TLC analysis. As to conditions: compound as substrate; pH 6.5, 30° C. The format is biochemical, Fragaria ananassa. On the procedure:
as §1, §2, §3

Assay [7] has as its target T1, Recombinant DFR A. thaliana (Arabidopsis thaliana, UniProt P51102).
T1 construct: We amplified full-length cDNA of various plant DFR open reading frames by PCR and RT-PCR; made in house; host or cells: E. coli TOP10F′ (crude lysate)
T1 sequence (P51102 1-382): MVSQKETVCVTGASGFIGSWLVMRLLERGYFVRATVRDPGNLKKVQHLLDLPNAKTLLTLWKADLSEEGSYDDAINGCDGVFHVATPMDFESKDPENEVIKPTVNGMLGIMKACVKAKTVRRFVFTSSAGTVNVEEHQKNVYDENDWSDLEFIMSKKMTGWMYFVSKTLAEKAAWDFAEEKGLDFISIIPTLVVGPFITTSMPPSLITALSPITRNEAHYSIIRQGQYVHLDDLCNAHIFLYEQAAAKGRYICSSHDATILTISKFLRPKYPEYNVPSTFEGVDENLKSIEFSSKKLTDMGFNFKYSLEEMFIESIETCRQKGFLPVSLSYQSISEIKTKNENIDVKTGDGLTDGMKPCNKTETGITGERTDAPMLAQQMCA
Kind of assay: In vitro DFR/FNR enzymatic reaction, TLC analysis. The class given is biochemical. The conditions noted are these: compound as substrate; pH 6.5, 30° C. On the procedure: as §1, §2, §3

Another assay relates to Recombinant DFR I. nil. Kind of assay: In vitro DFR/FNR enzymatic reaction, TLC analysis. The class given is biochemical, Ipomoea nil. The conditions noted are these: compound as substrate; pH 6.5, 30° C. On the procedure:
as §1, §2, §3

Another assay concerns A. andraeanum DFR. Kind of assay: Biotransformation assay of flavanones with recombinant E. coli harboring Anthurium DFR (flavanone reductase activity). The class given is cell-based, Anthurium andraeanum. As to conditions: substrate 0.4 mg/mL, 30° C., 24 hours, HPLC.
Assay [8] relates to flavanone biosynthesis in recombinant yeast strain INV-4G. The experiment in a line: Naringenin production from coumaric acid by INV-4G in the presence of apigenin (feedback inhibition). The class given is cell-based, S. cerevisiae. An excerpt:
Heterologous expression and fermentation. In order to assemble the two different flavone biosynthetic pathways, recombinant INVSc1 carrying plasmid Ycc4c181G was transformed with YC-FSI, YC-FSII or YC-FSII+CPR1 separately, yielding recombinant strains INV-4G+FSI, INV-4G+FSII, and INV-4G+FSII+CPR1. Yeast colonies harboring both plasmids were selected upon growth on SC agar plates lacking leucine and tryptophan (SC-Leu-Trp-). For flavone fermentation purposes, an individual recombinant yeast colony was grown overnight in 10-mL liquid SC-Leu-Trp-containing glucose at 30° C. with shaking. The following day, a portion of this culture was used to seed the main culture of SC-Leu-Trp-containing galactose and raffinose or MA-Leu-Trp-containing galactose and acetate to an Ab600 of 0.4. 0.5 mM of phenylpropanoid acid (cinnamic acid, p-coumaric acid, caffeic acid, ferulic acid) was then added to the main culture, and incubation was carried out at 30° C. with horizontal shaking for a maximum of 92 hours.
Considering that INV-4G+FSI produced more apigenin than INV-4G+FSII+CPR1, we tested the possibility that flavanone biosynthesis is feedback—inhibited by apigenin. For this purpose, recombinant yeast strain carrying only the four flavanone biosynthetic genes (INV-4G) was created by simultaneously inserting YP-4G and empty YCplac22 plasmid. INV-4G was then tested for the ability to generate naringenin from coumaric acid, in the presence of apigenin. […] In the presence of 1 mg/L apigenin, the production of naringenin at stationary phase was reduced by 14%.

Method for A. andraeanum DFR: Seed cultures of recombinant E. coli harboring Anthurium DFR were grown in LB with 100 μg/mL ampicillin. After 24 hours, the preinoculum was used to seed a 50-mL main culture which was incubated at 37° C. until A600 reached 0.5. IPTG and flavanone substrates were added at a final concentration of 2 mM and 0.4 mg/mL respectively, and incubation proceeded at 30° C. for 24 hours before harvesting. Flavonoid products in the culture supernatant were extracted twice with an equal volume of ethyl acetate. The organic solvent was collected and evaporated using a rotary evaporator, and the residue was dissolved in water.
The products were analyzed by HPLC using an Agilent HPLC 1100 series instrument with a diode array detector. HPLC was carried out using a reverse phase ZORBAX SB-C18 column (diameter 4.6 mm×150 mm) using an acetonitrile (solvent A) and water (solvent B) gradient at a flow rate of 1 ml/min. The HPLC program conditions used were as follows: 10% to 40% A (0-10 min), 40% to 60% A (10-15 min), 60% A (15-20 min). Absorbance at 280 nm was monitored in all cases. […] The UV maximum for the various flavan-4-ols synthesized were: 276 nm for 2,4-cis-flavan-4-ol; 275 nm for 2,4-trans-flavan-4-ol; 281 nm for 2,4-cis-7-hydroxyflavan-4-ol; and 279 nm for 2,4-trans-7-hydroxyflavan-4-ol.
Besides NAR and ERI, four other commercially available flavanones were tested as substrates using the recombinant A. andraeanum DFR enzyme. The biotransformation assay was chosen for that purpose, since these flavanones cannot be synthesized as radio-isotopomers.

`O=C(O)/C=C/c1ccc(O)cc1` [p-coumaric acid] gave a growth rate in the assay on E. coli BL21 Star of 0.18 h⁻¹.

On to `O=C1C[C@@H](c2ccc(O)cc2)Oc2cc(O)cc(O)c21` [naringenin], for which the Specific activity was 0.7 pkatal/mg in assay [1]; 0 pkatal/mg in [3]; 0 pkatal/mg in [4]; 0.4 pkatal/mg in assay [5]; 0.5 pkatal/mg in assay [6]; 0 pkatal/mg in assay [7]. The Specific activity with Recombinant DFR I. nil came to 0.3 pkatal/mg. The “final dry cell weight concentration” value in [2] (1 mM naringenin in minimal medium, after 13 h cell growth) turned out to be 0.492 mg/mL. The “reduction in the final dry cell weight” value in assay [2] (1 mM naringenin vs control, 13 h) amounted to 16%. The “maximum specific growth rate” value in assay [2] (1 mM naringenin, M9 minimal medium) amounted to 0.14 h⁻¹. Moreover, the “OD600 (final cell mass)” value in [2] (1 mM naringenin, after 13 h of growth) came to 1.0.

As for `COc1cc(OC)c2c(c1)OC(c1ccccc1)CC2=O` (stereo not shown) [5,7-dimethoxyflavanone], the “reduction to the corresponding flavan-4-ol” value in the assay with A. andraeanum DFR is given as “not”.

`O=C1c2c(O)cc(O)cc2O[C@H](c2cc(O)c(O)c(O)c2)[C@H]1O` [DHM, dihydromyricetin]: the Specific activity is reported as 1.4 pkatal/mg in [1]; 1.5 pkatal/mg in [3]; 1.2 pkatal/mg in assay [4]; 1.3 pkatal/mg in [5]; 1.4 pkatal/mg in assay [6]; 1.0 pkatal/mg in [7]. In the assay with Recombinant DFR I. nil, the Specific activity was found to be 1.5 pkatal/mg.

As to `COc1ccc([C@@H]2CC(=O)c3c(O)cc(O)cc3O2)cc1O` [hesperetin], the “reduction to the corresponding flavan-4-ol” value with A. andraeanum DFR was “not”.

Turning to `O=C1c2c(O)cc(O)cc2O[C@H](c2ccc(O)cc2)[C@H]1O` [DHK, dihydrokaempferol], the Specific activity in assay [1] turned out to be 21 pkatal/mg; in assay [3], 0 pkatal/mg; in assay [4], 0 pkatal/mg; in assay [5] it was 0.4 pkatal/mg; in assay [6] it was 14 pkatal/mg; in assay [7], 0.002 pkatal/mg. Besides, the Specific activity in the assay on Recombinant DFR I. nil was found to be 0.3 pkatal/mg.

Consider `O=C1CC(c2ccccc2)Oc2ccccc21` (stereo not shown) [flavanone], for which, in the assay on A. andraeanum DFR, the “reduction to the corresponding flavan-4-ol” value is given as “able to reduce”.

Regarding `O=C1c2c(O)cc(O)cc2O[C@H](c2ccc(O)c(O)c2)[C@H]1O` [DHQ, dihydroquercetin], the Specific activity in [1] was 1.4 pkatal/mg; in assay [3], 1.2 pkatal/mg; in [4], 1.3 pkatal/mg; in [5], 1.0 pkatal/mg; in [6], 1.2 pkatal/mg; in assay [7] it was 1.3 pkatal/mg. The Specific activity with Recombinant DFR I. nil is reported as 1.3 pkatal/mg.

Consider `O=C1C[C@@H](c2ccc(O)c(O)c2)Oc2cc(O)cc(O)c21` [ERI, eriodictyol], for which the Specific activity in [1] is 0.8 pkatal/mg; in assay [3], 0.6 pkatal/mg; in assay [4] it was 0.6 pkatal/mg; in assay [5], 0.7 pkatal/mg; in [6] it was 0.6 pkatal/mg; in assay [7], 0.6 pkatal/mg. In addition, the Specific activity with Recombinant DFR I. nil was determined as 0.6 pkatal/mg.

On to `O=c1cc(-c2ccc(O)cc2)oc2cc(O)cc(O)c12` [apigenin], for which the “production of naringenin at stationary phase reduced by” value in assay [8] (1 mg/L apigenin) was determined as 14%. Further, the values for the naringenin production decline entry in assay [8] (3 mg/L apigenin) and in assay [8] (10 mg/L apigenin) were “approximately 60%” and about 85%, respectively.
